Assay results from PMC7957578, “N-(1,3,4-Oxadiazol-2-yl)Benzamides as Antibacterial Agents against Neisseria gonorrhoeae” (International Journal of Molecular Sciences, 2021).
≈ marks a conversion by molar mass, not a printed value. Where two headings read alike, the source gives them in different places.

What was measured:
[1] = test system: L. monocytogenes ATCC 19115; assay: MIC/MBC (CLSI broth microdilution) against L. monocytogenes ATCC 19115; format: cell-based; conditions: Listeria monocytogenes, ATCC19115, L. monocytogenes ATCC 19115
S. aureus ATCC 25923 = assay: MIC/MBC (CLSI broth microdilution) against S. aureus ATCC 25923; format: cell-based; conditions: Staphylococcus aureus, ATCC25923, S. aureus ATCC 25923
Description: (§1) The minimum inhibitory concentrations (MICs) of the tested compounds and control drugs, linezolid, vancomycin, and gentamicin, were determined using the broth microdilution method according to the guidelines outlined by the Clinical and Laboratory Standards Institute (CLSI) against clinically relevant bacterial (Staphylococcus aureus, MRSA, Escherichia coli, Enterococcus faecalis and Enterococcus faecium strains. S. aureus, MRSA, E. coli, Enterococcus faecalis and Enterococcus faecium were grown aerobically overnight on tryptone soy agar (TSA) plates at 37° C. Afterwards, a bacterial solution equivalent to 0.5 McFarland standard was prepared and diluted in cation-adjusted Mueller–Hinton broth (CAMHB) (for S. aureus, MRSA, and E. coli) to achieve a bacterial concentration of about 5 × 10^5 CFU/mL. Enterococcus faecalis and Enterococcus faecium 0.5 McFarland standard solution was diluted in tryptone soy broth (TSB) to achieve a bacterial concentration of about 5 × 10^5 CFU/mL. Compounds and control drugs were added in the first row of 96-well plates and serially diluted with the corresponding media containing bacteria. Plates were then incubated as previously described. […] The minimum bactericidal concentration (MBC) was tested by spotting 4 µL from wells with no growth onto TSA plates. Plates were incubated at 37 ° C for at least 18 h before recording the MBC. The MBC was categorized as the lowest concentration that reduced bacterial growth by 99.9% [45, 46, 47].

[2] = test system: panel drug-resistant pathogenic N. gonorrhoeae strains; assay: MIC/MBC against a panel of drug-resistant N. gonorrhoeae strains; format: cell-based, Neisseria gonorrhoeae; conditions: MBC the same as or one-fold higher than MIC
VRE. faecalis ATCC 51299 = assay: MIC/MBC (CLSI broth microdilution) against VRE faecalis ATCC 51299; format: cell-based; conditions: Enterococcus, VRE faecalis ATCC 51299
Description: as §1

[3] = test system: human colorectal cells (Caco-2); assay: In vitro cytotoxicity, MTS assay; format: cell-based
Description: HSGN-237 and -238 were assayed for potential cytotoxicity against a human colorectal adenocarcinoma (Caco-2) cell line, as described previously. Briefly, tested compounds were incubated with caco-2 cells for 24 and 48 h. Then, the cells were incubated with MTS (3-(4,5-dimethylthiazol-2-yl)-5-(3-carboxymethoxyphenyl)-2-(4-sulfophenyl)-2H-tetrazolium) reagent for 4 h before measuring the absorbance values (OD490).
Figure 2 In vitro cytotoxicity assessment of HSGN-237 and -238 (tested in triplicate) against human colorectal cells (Caco-2) after (A) 24 h, and (B) 48 h, using the 3-(4,5-dimethylthiazol-2-yl)-5-(3-carboxymethoxyphenyl)-2-(4-sulfophenyl)-2H-tetrazolium (MTS) assay. Results are presented as percent viable cells relative to DMSO (negative control). Error bars represent standard deviation values. A two-way ANOVA, with post hoc Dunnet’s multiple comparisons test, determined the statistical difference between the values obtained for the compound and DMSO. Asterisks denote statistically significant differences between treatments of cells with either HSGN-237 or -238 as compared to DMSO-treated cells. The experiment was repeated 3 independent times.

N. gonorrhoeae 166 = assay: MIC/MBC against N. gonorrhoeae clinical isolate 166; format: cell-based; conditions: Neisseria gonorrhoeae
Description: (§2) Briefly, bacteria were grown overnight on chocolate agar II at 37° C in the presence of 5% CO2. Afterwards, a bacterial suspension equivalent to 1.0 McFarland standard was prepared and diluted in brucella broth supplemented with yeast extract, neopeptone, hematin, pyridoxal, and NAD. Test agents were added in the first row of the 96-well plates and serially diluted along the plates. Plates were then incubated at 37° C in the presence of 5% CO2 for 24 h. […] Plates were then incubated at 37 ° C in the presence of 5% CO2 for 24 h. The MBC was categorized as the lowest concentration that reduced bacterial growth by 99.9% [45, 46, 47].

VRE. faecalisATCC 51575 = assay: MIC/MBC (CLSI broth microdilution) against VRE faecalis ATCC 51575; format: cell-based; conditions: Enterococcus, VRE faecalis ATCC 51575
Description: as §1

[4] = test system: E. coli BW25113 (wild-type strain); assay: MIC/MBC (CLSI broth microdilution) against E. coli BW25113 wild type; format: cell-based, Escherichia coli; conditions: E. coli BW25113 wild-type strain
Description: as §1

VRE. faecium ATCC 700221 = assay: MIC/MBC (CLSI broth microdilution) against VRE faecium ATCC 700221; format: cell-based; conditions: Enterococcus, VRE faecium ATCC 700221
Description: as §1

MRSA USA300 = assay: MIC/MBC (CLSI broth microdilution) against MRSA USA300; format: cell-based, methicillin-resistant Staphylococcus aureus; conditions: Staphylococcus aureus, MRSA USA300
Description: as §1

E. faecalis ATCC 29212 = assay: MIC/MBC (CLSI broth microdilution) against E. faecalis ATCC 29212; format: cell-based; conditions: Enterococcus faecalis, ATCC29212, E. faecalis ATCC 29212
Description: as §1

N. gonorrhoeae = assay: MIC against N. gonorrhoeae in presence of fetal bovine serum; format: cell-based; conditions: Neisseria gonorrhoeae, 24 h
[5] = test system: tested bacterial strains (Table 3); assay: MBC versus MIC against the panel of Gram-positive and Gram-negative pathogens; format: cell-based; conditions: MBCs more than three-fold higher than MICs, strains of Table 3
Description: While the focus of these new N-(1,3,4-oxadiazol-2-yl)benzamides is towards N. gonorrhoeae, we proceeded to test their activity against other Gram-positive and Gram-negative pathogens. Intriguingly, HSGN-235, HSGN-237, and HSGN-238 had potent activity against the tested Gram-positive bacterial pathogens. For instance, all three compounds had potent activity against the staphylococcal strains, with MICs ranging from 0.25 to 1 µg/mL (Table 3). Furthermore, HSGN-235, HSGN-237, and HSGN-238 maintained potent activity against clinically relevant Gram-positive bacterial pathogens such as vancomycin-resistant enterococci (VRE) and Listeria monocytogenes (Table 3). Additionally, we moved to test if HSGN-235, HSGN-237, and HSGN-238 were active against other Gram-negative bacterial pathogens. […] This lack of activity against Gram-negative bacteria appears to be due to HSGN-235, HSGN-237, and HSGN-238 being a substrate for efflux.
The minimum inhibitory concentrations (MICs) of the tested compounds and control drugs, linezolid, vancomycin, and gentamicin, were determined using the broth microdilution method according to the guidelines outlined by the Clinical and Laboratory Standards Institute (CLSI) against clinically relevant bacterial (Staphylococcus aureus, MRSA, Escherichia coli, Enterococcus faecalis and Enterococcus faecium strains. S. aureus, MRSA, E. coli, Enterococcus faecalis and Enterococcus faecium were grown aerobically overnight on tryptone soy agar (TSA) plates at 37° C. Afterwards, a bacterial solution equivalent to 0.5 McFarland standard was prepared and diluted in cation-adjusted Mueller–Hinton broth (CAMHB) (for S. aureus, MRSA, and E. coli) to achieve a bacterial concentration of about 5 × 10^5 CFU/mL. Enterococcus faecalis and Enterococcus faecium 0.5 McFarland standard solution was diluted in tryptone soy broth (TSB) to achieve a bacterial concentration of about 5 × 10^5 CFU/mL. Compounds and control drugs were added in the first row of 96-well plates and serially diluted with the corresponding media containing bacteria. […]

N. gonorrhoeae WHO L = assay: MIC/MBC against N. gonorrhoeae WHO L reference strain; format: cell-based; conditions: Neisseria gonorrhoeae
Description: as §2

[6] = test system: E. coli JW55031 (TolC Mutant); assay: MIC/MBC (CLSI broth microdilution) against E. coli TolC mutant; format: cell-based; conditions: Escherichia coli
Description: as §1

N. gonorrhoeae 200 = assay: MIC/MBC against N. gonorrhoeae clinical isolate 200; format: cell-based; conditions: Neisseria gonorrhoeae
Description: as §2

N. gonorrhoeae 197 = assay: MIC/MBC against N. gonorrhoeae clinical isolate 197; format: cell-based; conditions: Neisseria gonorrhoeae
Description: as §2

[7] = test system: N. gonorrhoeae strain 181; assay: MIC by broth microdilution against N. gonorrhoeae strain 181; format: cell-based, Neisseria gonorrhoeae; conditions: Neisseria gonorrhoeae; N. gonorrhoeae strain 181; read-out: MIC
Description: as §2

N. gonorrhoeae 194 = assay: MIC/MBC against N. gonorrhoeae clinical isolate 194; format: cell-based; conditions: Neisseria gonorrhoeae
Description: as §2

N. gonorrhoeae 165 = assay: MIC/MBC against N. gonorrhoeae clinical isolate 165; format: cell-based; conditions: Neisseria gonorrhoeae
Description: as §2

Caco-2 bilayers = assay: Caco-2 bidirectional permeability assay; format: in vitro ADME, human; conditions: Caco-2 permeability classification
Text: Oral bioavailability is a highly important consideration when developing bioactive molecules as therapeutic agents. A critical factor of oral bioavailability is human intestinal absorption. The Caco-2 bidirectional permeability assay is the most widely used in vitro model for predicting if a bioactive molecule can have adequate systemic absorption. Thus, we selected HSGN-238 to act as a model to analyze the drug-like properties of newly synthesized N-(1,3,4-oxadiazol-2-yl)benzamides.
Assay and data analysis were performed by Eurofins Panlabs (MO, USA) according to a previously reported protocol. The apparent permeability coefficient (Papp) of the tested agents was calculated using the equation below: Papp(cm/s)=VR∗CR,end/Δt∗1/A∗(CD,mid−CR,mid), where VR is the volume of the receiver chamber. CR,end is the concentration of the test compound in the receiver chamber at the end time point, Δt is the incubation time, and A is the surface area of the cell monolayer. CD,mid is the calculated mid-point concentration of the test compound in the donor side, which is the mean value of the donor concentration at 0 minutes and the donor concentration at the end time point. CR,mid is the mid-point concentration of the test compound in the receiver side, which is one half of the receiver concentration at the end time point. Concentrations of the test compound were expressed as peak areas of the test compound.

Compound: O=C(Nc1nnc(-c2cccc(F)c2)o1)c1ccc(OC(F)(F)F)cc1 [HSGN-237, N-(5-(3-Fluorophenyl)-1,3,4-oxadiazol-2-yl)-4-(trifluoromethoxy)benzamide]
- MBC ([1]; read-out: MBC): 64 µg/mL (≈ 174 µM)
- MIC ([1]; read-out: MIC): 0.5 µg/mL (≈ 1.36 µM)
- MBC (S. aureus ATCC 25923; read-out: MBC): > 64 µg/mL
- MIC (S. aureus ATCC 25923; read-out: MIC): 0.25 µg/mL (≈ 0.681 µM)
- type of activity from MBC versus MIC [2]: bactericidal activity
- MBC (VRE. faecalis ATCC 51299; read-out: MBC): 16 µg/mL (≈ 43.6 µM)
- MIC (VRE. faecalis ATCC 51299; read-out: MIC): 0.5 µg/mL (≈ 1.36 µM)
- non-toxic concentration ([3]; Caco-2 cells, 24 and 48 h, MTS assay): higher than 64 µg/mL
- non-toxic concentration relative to MIC against N. gonorrhoeae ([3]; Caco-2 non-toxic concentration versus corresponding MIC): 512 times
- MBC (N. gonorrhoeae 166): 0.06 µg/mL (≈ 0.163 µM)
- MIC (N. gonorrhoeae 166): 0.06 µg/mL (≈ 0.163 µM)
- MBC (VRE. faecalisATCC 51575; read-out: MBC): > 64 µg/mL
- MIC (VRE. faecalisATCC 51575; read-out: MIC): 1 µg/mL (≈ 2.72 µM)
- MIC [4]: >8 µg/mL
- MBC ([4]; Escherichia coli, read-out: MBC): > 8 µg/mL
- MIC ([4]; Escherichia coli, read-out: MIC): > 8 µg/mL
- MBC (VRE. faecium ATCC 700221; read-out: MBC): 8 µg/mL (≈ 21.8 µM)
- MIC (VRE. faecium ATCC 700221; read-out: MIC): 0.5 µg/mL (≈ 1.36 µM)
- MBC (MRSA USA300; read-out: MBC): 32 µg/mL (≈ 87.1 µM)
- MIC (MRSA USA300; read-out: MIC): 0.25 µg/mL (≈ 0.681 µM)
- MBC (E. faecalis ATCC 29212; read-out: MBC): > 64 µg/mL
- MIC (E. faecalis ATCC 29212; read-out: MIC): 1 µg/mL (≈ 2.72 µM)
- MIC (N. gonorrhoeae; 1% FBS added to the media): 0.125 µg/mL
- MIC (N. gonorrhoeae; 5% FBS added to the media): 1 µg/mL
- MIC (N. gonorrhoeae; 10% FBS added to the media): 4 µg/mL
- type of activity from MBC versus MIC [5]: bacteriostatic agents
- MBC (N. gonorrhoeae WHO L): 0.06 µg/mL (≈ 0.163 µM)
- MIC (N. gonorrhoeae WHO L): 0.06 µg/mL (≈ 0.163 µM)
- MBC [6]: 16 µg/mL (≈ 43.6 µM)
- MIC [6]: 0.25 µg/mL (≈ 0.681 µM)
- MBC (N. gonorrhoeae 200): 0.06 µg/mL (≈ 0.163 µM)
- MIC (N. gonorrhoeae 200): 0.06 µg/mL (≈ 0.163 µM)
- MBC (N. gonorrhoeae 197): 0.06 µg/mL (≈ 0.163 µM)
- MIC (N. gonorrhoeae 197): 0.03 µg/mL (≈ 0.0817 µM)
- MIC [7]: 0.125 µg/mL (≈ 0.34 µM)
- MBC (N. gonorrhoeae 194): 0.06 µg/mL (≈ 0.163 µM)
- MIC (N. gonorrhoeae 194): 0.03 µg/mL (≈ 0.0817 µM)
- MBC (N. gonorrhoeae 165): 0.125 µg/mL (≈ 0.34 µM)
- MIC (N. gonorrhoeae 165): 0.06 µg/mL (≈ 0.163 µM)

Compound: CNC(=C[N+](=O)[O-])NCCSCc1ccc(CN(C)C)o1 [Ranitidine]
- Notes (permeability class) (Caco-2 bilayers): Low Permeability Control
